Source: patent publication US20070270418A1, “Inhibitors of P38 and Methods of Using the Same” (priority 2003, published 2007)
Read-outs that look alike come from different tables or passages of the source.

Tests used:
Syk = target: T1, Syk (Homo sapiens, UniProt P43405); experiment: Broad selectivity panel, 32P incorporation; assay type: biochemical; conditions: 40 μM ATP, read-out: Percent inhibition Syk; for inhibition at 0.1 µM: 0.1 μM compound; for inhibition at 1 µM: 1 μM compound
T1 construct: purchased Upstate (Charlottesville, Va.)
Method: (§1) Various compounds of the present invention are screened against a panel of 24 additional kinases (Upstate, Charlottesville, Va.). Compounds are tested 0.1 μM and 1 μM in reactions containing 40 μM ATP. Incorporation of radiolabeled phosphate (^32P) into each kinase substrate is measured in the presence and absence of test compound.

Lck = target: T2, Lck (Homo sapiens, UniProt P06239); experiment: Broad selectivity panel, 32P incorporation; assay type: biochemical; conditions: 40 μM ATP, read-out: Percent inhibition Lck; for inhibition at 0.1 µM: 0.1 μM compound; for inhibition at 1 µM: 1 μM compound
T2 construct: purchased Upstate (Charlottesville, Va.)
Method: as §1

InsR = target: T3, InsR (Homo sapiens, UniProt P06213); experiment: Broad selectivity panel, 32P incorporation; assay type: biochemical; conditions: 40 μM ATP, read-out: Percent inhibition InsR; for inhibition at 0.1 µM: 0.1 μM compound; for inhibition at 1 µM: 1 μM compound
T3 construct: purchased Upstate (Charlottesville, Va.)
Method: as §1

[1] = system: collagen-induced arthritis in rats; experiment: In vivo established type II collagen arthritis study; design: species or system Female Lewis rats; conditions: Rattus norvegicus, po, oral gavage bid, days 1-7 of arthritis
Method: Compounds are tested in the collagen-induced model of arthritis in rats. Female Lewis rats (0.16-0.2 kg) are injected subcutaneously at the base of the tail and two sites on the back on day 0 and 6 with 300 μl of Freund's Incomplete Adjuvant containing 2 mg/ml of Bovine Type II Collagen. On day 9 of the study, caliper measurements of both hind leg ankle joints are performed. This measurement is considered the normal, pre-disease measurement. When ankle swelling is clearly established in at least one hind paw (caliper measurement increase from 0.263 to 0.282 inches), rats are enrolled into the treatment phase of the study. This occurs on day 10 or 11 of the study and is considered to be day 1 of arthritis. Enrolled animals are randomized and administered vehicle control or compound (1, 3.3, 10, or 30 mg/kg, bid), unless otherwise indicated, or dexamethasone (0.0375 mg/kg, bid) via oral gavage on days 1-7 of arthritis (treatment days). Ankle diameters are measured on each day of treatment. Mean increases in ankle diameter for 7 lead compounds are shown below in FIGS. 3-9.
Following sacrifice on day 7, both hind paws are removed from each animal and weighed. Knees and ankles from all animals in all groups are preserved, decalcified in 5% formic acid and trimmed into two approximately equal longitudinal (ankles) or frontal (knees) halves, dehydrated, cleared, infiltrated, and embedded in paraffin. Blocks are sectioned and stained with Toluidine Blue.
Tissues are examined microscopically and scored for knee and ankle inflammation (cellular infiltration), pannus formation and infiltration, cartilage damage (loss of Toluidine staining and collagen disruption) and bone resorption. Scoring is on a scale from 0-5, where a score of 0 is normal and a score of 5 indicates severe damage or evidence of disease or both.

MAPK2 = target: T4, MAPK2 (Homo sapiens, UniProt P28482); experiment: Broad selectivity panel, 32P incorporation; assay type: biochemical; conditions: 40 μM ATP, read-out: Percent inhibition MAPK2; for inhibition at 0.1 µM: 0.1 μM compound; for inhibition at 1 µM: 1 μM compound
T4 construct: purchased Upstate (Charlottesville, Va.)
Method: as §1, with “compound. Results are reported as the percent decrease in the amount of ^32P incorporated into the substrate in the presence of compound, compared to buffer control.” for “compound.”

CK2 = target: T5, CK2 (Homo sapiens, UniProt P68400); experiment: Broad selectivity panel, 32P incorporation; assay type: biochemical; conditions: 40 μM ATP, read-out: Percent inhibition CK2; for inhibition at 0.1 µM: 0.1 μM compound; for inhibition at 1 µM: 1 μM compound
T5 construct: purchased Upstate (Charlottesville, Va.)
Method: as §1, with “compound. Results are reported as the percent decrease in the amount of ^32P incorporated into the substrate in the presence of compound, compared to buffer control.” for “compound.”

MAPK1 = target: T6, MAPK1 (Homo sapiens, UniProt P27361); experiment: Broad selectivity panel, 32P incorporation; assay type: biochemical; conditions: 40 μM ATP, read-out: Percent inhibition MAPK1; for inhibition at 0.1 µM: 0.1 μM compound; for inhibition at 1 µM: 1 μM compound
T6 construct: purchased Upstate (Charlottesville, Va.)
Method: as §1, with “compound. Results are reported as the percent decrease in the amount of ^32P incorporated into the substrate in the presence of compound, compared to buffer control.” for “compound.”

FGFR3 = target: T7, FGFR3 (Homo sapiens, UniProt P22607); experiment: Broad selectivity panel, 32P incorporation; assay type: biochemical; conditions: 40 μM ATP, read-out: Percent inhibition FGFR3; for inhibition at 0.1 µM: 0.1 μM compound; for inhibition at 1 µM: 1 μM compound
T7 construct: purchased Upstate (Charlottesville, Va.)
Method: as §1, with “compound. Results are reported as the percent decrease in the amount of ^32P incorporated into the substrate in the presence of compound, compared to buffer control.” for “compound.”

SAPK4 = target: T8, SAPK4 (Homo sapiens, UniProt O15264); experiment: Broad selectivity panel, 32P incorporation; assay type: biochemical; conditions: 40 μM ATP, read-out: Percent inhibition SAPK4; for inhibition at 0.1 µM: 0.1 μM compound; for inhibition at 1 µM: 1 μM compound
T8 construct: purchased Upstate (Charlottesville, Va.)
T8 sequence (O15264 1-365): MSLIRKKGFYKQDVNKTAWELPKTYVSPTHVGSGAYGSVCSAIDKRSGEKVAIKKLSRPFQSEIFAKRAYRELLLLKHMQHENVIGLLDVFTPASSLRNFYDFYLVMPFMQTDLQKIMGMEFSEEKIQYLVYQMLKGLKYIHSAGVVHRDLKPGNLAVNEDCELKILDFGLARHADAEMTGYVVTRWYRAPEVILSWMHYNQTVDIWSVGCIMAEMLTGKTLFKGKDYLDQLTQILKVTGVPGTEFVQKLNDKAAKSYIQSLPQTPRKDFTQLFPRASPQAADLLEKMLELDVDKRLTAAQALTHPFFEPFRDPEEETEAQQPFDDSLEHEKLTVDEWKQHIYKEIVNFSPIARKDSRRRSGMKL
Method: as §1, with “compound. Results are reported as the percent decrease in the amount of ^32P incorporated into the substrate in the presence of compound, compared to buffer control.” for “compound.”

CDK2/cyclinA = target: T9, CDK2/cyclinA (Homo sapiens, UniProt P24941); experiment: Broad selectivity panel, 32P incorporation; assay type: biochemical; conditions: 40 μM ATP, read-out: Percent inhibition CDK2/cyclinA; for inhibition at 0.1 µM: 0.1 μM compound; for inhibition at 1 µM: 1 μM compound
T9 construct: purchased Upstate (Charlottesville, Va.)
Method: as §1, with “compound. Results are reported as the percent decrease in the amount of ^32P incorporated into the substrate in the presence of compound, compared to buffer control.” for “compound.”

[2] = first column so headed (c3), read-out: ED50 summed ankle histology
[3] = second column so headed (c4), read-out: ED50 summed ankle histology

T7 sequence (P22607 23-806, species assumed): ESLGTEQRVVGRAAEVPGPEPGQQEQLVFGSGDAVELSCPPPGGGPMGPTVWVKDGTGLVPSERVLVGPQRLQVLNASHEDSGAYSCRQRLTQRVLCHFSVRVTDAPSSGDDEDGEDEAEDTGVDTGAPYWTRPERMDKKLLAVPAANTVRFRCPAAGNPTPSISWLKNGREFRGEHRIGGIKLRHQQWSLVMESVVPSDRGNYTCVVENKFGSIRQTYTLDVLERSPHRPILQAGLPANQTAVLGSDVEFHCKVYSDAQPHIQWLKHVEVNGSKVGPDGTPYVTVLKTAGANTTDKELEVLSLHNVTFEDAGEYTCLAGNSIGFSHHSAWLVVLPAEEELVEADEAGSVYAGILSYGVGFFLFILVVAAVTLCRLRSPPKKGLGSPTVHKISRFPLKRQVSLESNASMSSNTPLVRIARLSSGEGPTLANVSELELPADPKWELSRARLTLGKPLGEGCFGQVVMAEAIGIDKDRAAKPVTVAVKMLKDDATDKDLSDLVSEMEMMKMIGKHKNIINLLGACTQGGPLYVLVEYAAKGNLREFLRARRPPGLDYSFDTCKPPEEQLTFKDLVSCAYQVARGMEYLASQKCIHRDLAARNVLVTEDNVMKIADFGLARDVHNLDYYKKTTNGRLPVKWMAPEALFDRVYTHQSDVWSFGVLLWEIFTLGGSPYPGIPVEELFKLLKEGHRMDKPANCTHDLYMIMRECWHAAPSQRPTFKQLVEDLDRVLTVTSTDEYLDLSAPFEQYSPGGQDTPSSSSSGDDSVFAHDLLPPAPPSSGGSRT
T2 sequence (P06239 whole entry, species assumed): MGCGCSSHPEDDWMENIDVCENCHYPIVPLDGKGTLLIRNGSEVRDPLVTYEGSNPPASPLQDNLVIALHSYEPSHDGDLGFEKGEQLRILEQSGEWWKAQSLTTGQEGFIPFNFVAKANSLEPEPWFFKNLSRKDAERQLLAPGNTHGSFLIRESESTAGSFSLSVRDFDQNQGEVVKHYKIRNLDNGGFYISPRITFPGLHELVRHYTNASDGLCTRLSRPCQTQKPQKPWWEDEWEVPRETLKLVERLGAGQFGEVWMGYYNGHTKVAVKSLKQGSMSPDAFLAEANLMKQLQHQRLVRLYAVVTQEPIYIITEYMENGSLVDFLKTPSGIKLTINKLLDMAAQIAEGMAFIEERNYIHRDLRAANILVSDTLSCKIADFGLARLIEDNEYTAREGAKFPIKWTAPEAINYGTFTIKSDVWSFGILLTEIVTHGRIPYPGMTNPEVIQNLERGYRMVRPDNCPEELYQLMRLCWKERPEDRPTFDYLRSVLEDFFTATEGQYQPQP
T6 sequence (P27361 whole entry): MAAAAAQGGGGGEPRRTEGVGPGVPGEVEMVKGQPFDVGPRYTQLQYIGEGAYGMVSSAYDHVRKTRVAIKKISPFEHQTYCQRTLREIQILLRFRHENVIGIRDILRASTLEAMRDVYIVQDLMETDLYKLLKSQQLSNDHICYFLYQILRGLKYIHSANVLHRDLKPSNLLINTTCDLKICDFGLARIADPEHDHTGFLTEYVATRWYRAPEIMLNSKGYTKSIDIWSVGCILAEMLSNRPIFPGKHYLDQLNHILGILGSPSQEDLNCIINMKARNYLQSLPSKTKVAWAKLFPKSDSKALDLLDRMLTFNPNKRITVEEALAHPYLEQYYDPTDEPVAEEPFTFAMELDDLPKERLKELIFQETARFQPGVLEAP
T3 sequence (P06213 28-1382, species assumed): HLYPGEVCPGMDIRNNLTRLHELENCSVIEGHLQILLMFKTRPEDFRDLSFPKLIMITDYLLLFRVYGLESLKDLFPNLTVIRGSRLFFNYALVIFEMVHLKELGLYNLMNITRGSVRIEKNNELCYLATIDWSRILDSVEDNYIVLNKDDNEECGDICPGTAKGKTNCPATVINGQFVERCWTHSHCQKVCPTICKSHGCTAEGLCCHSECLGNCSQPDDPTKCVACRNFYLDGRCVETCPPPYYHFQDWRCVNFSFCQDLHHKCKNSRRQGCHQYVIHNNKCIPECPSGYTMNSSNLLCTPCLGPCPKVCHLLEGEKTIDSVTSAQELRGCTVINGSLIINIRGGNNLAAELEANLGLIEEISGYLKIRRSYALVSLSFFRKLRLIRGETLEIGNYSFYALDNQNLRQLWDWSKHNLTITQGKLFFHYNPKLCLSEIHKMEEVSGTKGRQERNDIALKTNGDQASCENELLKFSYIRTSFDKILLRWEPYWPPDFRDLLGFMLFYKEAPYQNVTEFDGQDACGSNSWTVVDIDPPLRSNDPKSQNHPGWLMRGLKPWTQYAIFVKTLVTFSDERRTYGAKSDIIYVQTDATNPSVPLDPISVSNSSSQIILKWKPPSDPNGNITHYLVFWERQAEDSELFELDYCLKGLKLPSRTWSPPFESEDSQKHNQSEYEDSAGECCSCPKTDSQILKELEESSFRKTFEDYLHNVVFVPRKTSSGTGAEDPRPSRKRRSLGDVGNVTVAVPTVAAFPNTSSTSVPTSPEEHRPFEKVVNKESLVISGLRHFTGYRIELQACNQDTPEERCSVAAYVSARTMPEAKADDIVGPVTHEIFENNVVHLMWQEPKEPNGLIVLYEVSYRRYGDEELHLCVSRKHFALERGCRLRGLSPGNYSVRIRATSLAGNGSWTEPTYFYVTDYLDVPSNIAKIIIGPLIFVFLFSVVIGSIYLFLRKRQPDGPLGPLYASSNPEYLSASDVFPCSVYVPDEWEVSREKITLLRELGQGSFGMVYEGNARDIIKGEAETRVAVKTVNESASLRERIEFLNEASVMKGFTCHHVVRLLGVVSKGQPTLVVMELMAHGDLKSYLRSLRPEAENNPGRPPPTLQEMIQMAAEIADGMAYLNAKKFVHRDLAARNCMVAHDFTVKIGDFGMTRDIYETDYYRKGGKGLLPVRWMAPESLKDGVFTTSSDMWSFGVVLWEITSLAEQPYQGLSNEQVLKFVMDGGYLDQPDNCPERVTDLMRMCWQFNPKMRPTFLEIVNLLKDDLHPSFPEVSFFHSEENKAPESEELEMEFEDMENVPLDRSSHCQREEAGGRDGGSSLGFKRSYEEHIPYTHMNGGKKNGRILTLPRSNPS
T5 sequence (P68400 whole entry): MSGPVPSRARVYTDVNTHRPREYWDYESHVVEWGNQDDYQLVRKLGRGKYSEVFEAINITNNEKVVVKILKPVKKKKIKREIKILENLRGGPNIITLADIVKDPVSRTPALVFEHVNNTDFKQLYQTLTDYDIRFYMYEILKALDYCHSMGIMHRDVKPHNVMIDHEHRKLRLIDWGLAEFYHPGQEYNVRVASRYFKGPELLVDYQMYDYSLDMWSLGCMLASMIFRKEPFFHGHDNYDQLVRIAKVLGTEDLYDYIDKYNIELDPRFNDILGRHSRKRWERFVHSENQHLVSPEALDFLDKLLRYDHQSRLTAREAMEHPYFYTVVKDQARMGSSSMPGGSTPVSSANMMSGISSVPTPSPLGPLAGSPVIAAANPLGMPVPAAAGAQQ
T5 sequence (P67870 whole entry partner): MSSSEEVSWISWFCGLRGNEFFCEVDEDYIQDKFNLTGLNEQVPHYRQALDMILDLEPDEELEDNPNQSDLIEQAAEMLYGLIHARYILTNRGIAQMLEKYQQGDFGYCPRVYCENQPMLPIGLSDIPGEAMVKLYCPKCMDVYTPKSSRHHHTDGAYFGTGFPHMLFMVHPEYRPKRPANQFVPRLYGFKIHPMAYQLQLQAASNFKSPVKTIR
T4 sequence (P28482 whole entry): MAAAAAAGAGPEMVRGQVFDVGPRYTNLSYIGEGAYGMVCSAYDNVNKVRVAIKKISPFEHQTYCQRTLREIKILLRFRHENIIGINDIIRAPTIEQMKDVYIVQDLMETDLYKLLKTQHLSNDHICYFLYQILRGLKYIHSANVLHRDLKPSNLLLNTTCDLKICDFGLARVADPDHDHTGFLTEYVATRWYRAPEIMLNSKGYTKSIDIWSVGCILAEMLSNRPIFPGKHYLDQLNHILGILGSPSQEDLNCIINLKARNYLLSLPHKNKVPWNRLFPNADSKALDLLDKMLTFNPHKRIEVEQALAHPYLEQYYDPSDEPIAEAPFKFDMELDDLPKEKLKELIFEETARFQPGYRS

| Compound | inhibition at 0.1 µM (MAPK2) [%] | inhibition at 1 µM (MAPK2) [%] | inhibition at 0.1 µM (CK2) [%] | inhibition at 1 µM (CK2) [%] | inhibition at 0.1 µM (MAPK1) [%] | inhibition at 1 µM (MAPK1) [%] | inhibition at 0.1 µM (FGFR3) [%] | inhibition at 1 µM (FGFR3) [%] | inhibition at 0.1 µM (SAPK4) [%] | inhibition at 1 µM (SAPK4) [%] | inhibition at 0.1 µM (CDK2/cyclinA) [%] | inhibition at 1 µM (CDK2/cyclinA) [%] | inhibition at 0.1 µM (Syk) [%] | inhibition at 1 µM (Syk) [%] | inhibition at 0.1 µM (Lck) [%] | inhibition at 1 µM (Lck) [%] | ED50 [1, 2] [mg/kg] | ED50 ([1]; read-out: ED50 ankle diameter) [mg/kg] | ED50 ([1]; read-out: ED50 paw weights) [mg/kg] | ED50 [1, 3] [mg/kg] | also measured |
| --- | --- | --- | --- | --- | --- | --- | --- | --- | --- | --- | --- | --- | --- | --- | --- | --- | --- | --- | --- | --- | --- |
| CN1[C@@H]2CC[C@H]1C[C@@H](Nc1nccc(-c3c(-c4ccc(F)cc4)nc4occn34)n1)C2 [CCLXXXI] | 10 | 23 | 6 | 16 | 25 | 49 | -27 | 26 | 2 | 7 | -2 | 5 | 17 | 33 | 26 | 35 | 0.93 | 0.98 | 0.94 | 0.2 | inhibition at 0.1 µM (InsR): -7%; inhibition at 1 µM (InsR): 14% |
| CN(C)CC(C)(C)CNc1nccc(-c2c(-c3ccc(F)cc3)nc3occn23)n1 [CXIX] | 10 | 7 | 9 | 3 | 7 | 15 | 9 | -2 | 3 | -4 | -1 | -1 | 35 | 33 | – | – | 2.64 | 2.3 | 3.75 | 1.19 | inhibition at 0.1 µM (InsR): 8%; inhibition at 1 µM (InsR): 3% |
| Fc1ccc(-c2nc3occn3c2-c2ccnc(N[C@@H]3CN4CCC3CC4)n2)cc1 [LXXI] | -5 | 18 | 3 | 12 | 27 | 56 | -1 | 16 | -1 | 3 | 0 | 8 | -5 | 33 | 8 | 17 | – | – | – | – | inhibition at 0.1 µM (InsR): -25%; inhibition at 1 µM (InsR): 12% |
| Fc1ccc(-c2nc3occn3c2-c2ccnc(NC3CN4CCC3CC4)n2)cc1 (stereo not shown) [LXXXIV] | – | – | – | – | – | – | – | – | – | – | – | – | – | – | – | – | 2.6 | 1.9 | 2 | 0.6 | – |
| Fc1ccc(-c2nc3occn3c2-c2ccnc(N[C@H]3CN4CCC3CC4)n2)cc1 [LXXXVII] | -4 | 14 | 4 | 4 | 12 | 27 | -23 | -21 | -3 | -1 | 1 | 0 | 17 | 23 | -15 | 18 | 2.07 | 1.29 | 1.88 | 0.42 | inhibition at 0.1 µM (InsR): -8%; inhibition at 1 µM (InsR): 8% |

Now from value to compound, other results behind:

| inhibition at 0.1 µM (MAPK2) [%] | inhibition at 1 µM (MAPK2) [%] | inhibition at 0.1 µM (CK2) [%] | inhibition at 1 µM (CK2) [%] | inhibition at 0.1 µM (MAPK1) [%] | inhibition at 1 µM (MAPK1) [%] | inhibition at 0.1 µM (FGFR3) [%] | inhibition at 1 µM (FGFR3) [%] | inhibition at 0.1 µM (SAPK4) [%] | inhibition at 1 µM (SAPK4) [%] | inhibition at 0.1 µM (CDK2/cyclinA) [%] | inhibition at 1 µM (CDK2/cyclinA) [%] | Compound | inhibition at 0.1 µM (Syk) [%] | inhibition at 1 µM (Syk) [%] | inhibition at 0.1 µM (Lck) [%] | inhibition at 1 µM (Lck) [%] | ED50 [1, 2] [mg/kg] | ED50 ([1]; read-out: ED50 ankle diameter) [mg/kg] | ED50 ([1]; read-out: ED50 paw weights) [mg/kg] | ED50 [1, 3] [mg/kg] | also measured |
| --- | --- | --- | --- | --- | --- | --- | --- | --- | --- | --- | --- | --- | --- | --- | --- | --- | --- | --- | --- | --- | --- |
| 14 | 43 | 8 | 4 | 29 | 79 | 9 | 10 | 3 | 0 | 24 | 65 | CS(=O)(=O)N1CCC(Nc2nccc(-c3c(-c4ccc(F)cc4)nc4occn34)n2)CC1 [CCLXXIX] | 3 | 10 | 2 | -3 | 4.29 | 2.09 | 2.57 | 0.72 | inhibition at 0.1 µM (InsR): 9%; inhibition at 1 µM (InsR): 2% |
| 18 | 42 | 5 | 10 | 25 | 63 | 19 | 32 | -3 | -4 | 1 | 20 | CC(=O)N1CCC(Nc2nccc(-c3c(-c4ccc(F)cc4)nc4occn34)n2)CC1 [CCLXXVIII] | – | – | 5 | 31 | 3.09 | 2.04 | 1.55 | 1.24 | inhibition at 0.1 µM (InsR): -28%; inhibition at 1 µM (InsR): -4% |
| -9 | 9 | 10 | 32 | 20 | 45 | -1 | 13 | 0 | 6 | 3 | 19 | Fc1ccc(-c2nc3occn3c2-c2ccnc(NC3CCNCC3)n2)cc1 [CCLXXX] | 5 | 40 | -3 | 27 | 7.6 | 5.43 | 3.51 | 1.04 | – |
